The text below walks through data of patent US10519179B2, “Highly efficient NRF2 activators-co-releasing molecule hybrids, their use in the treatment of inflammatory or cardiovascular diseases and their process of preparation” (Centre National de la Recherche Scientifique, priority 2015, dated 2019).

Entries after “also recorded” stand apart in the source; their conditions may differ. Structures can show the parent of a compound that is named as a salt.

Data set [1] relates to HO-1. Description: HO-1 protein expression in human THP-1 cells. The format is cell-based. On the procedure: (§1) Human monocytes (THP-1 cells) were cultured in RPMI 1640-Glutamax medium supplemented with 1% penicillin/streptomycin, 1% sodium pyruvate and 10% fetal bovine serum (RPMIc). Cells at confluence were washed with PBS and treated with compound C at different concentrations for 6 h according to the experimental protocol. Compound C was dissolved in DMSO at 0.1% as a final concentration in complete medium.

For data set [2], the system named is IL-1β. Description: IL-1β production in LPS-treated human THP-1 cells (ELISA). It counts as cell-based. As to conditions: 5 μM, 24 h. On the procedure: IL-1β production was measured in the supernatants of human THP-1 cells treated with LPS (100 μg/ml) in the presence or absence of 5 μM comp. C, DMF or CORM-401. After 24 h incubation, the medium was collected and IL-1β levels quantified using an ELISA kit (R&D Systems) following the manufacturer's instructions.
For orientation: An ELISA detects its analyte on a solid surface through an enzyme-linked reagent.

A short description of data set [3]: blood HbCO levels in mice after oral gavage. As to conditions: oral gavage, 1, 3 and 6 hours after administration. The format is in vivo. As for the experimental part:
Male C57 BL/6J mice were used for all experiments (Janvier Labs, France). Animals received at 8 weeks of age were placed on a standard diet and allowed to acclimatize for 2 weeks on a 12 hr light/dark cycle. All experiments were performed in compliance with INSERM guidelines for the use of animals and approved by the institutional review board at Paris-Est Creteil Val de Marne University. Mice were administered by oral gavage with a single dose of the following: 1) 200 μl of sesame oil (vehicle, control group); 2) Compound A (3 mg in 200 μl sesame oil); 3) Compound B (3 mg in 200 μl sesame oil).
Mice were sacrificed 6 hr after treatment by cervical dislocation. Livers, lungs, hearts and brains were excised and snap frozen for western blot analysis. Tissue samples were homogenized in lysis buffer (150 mM sodium chloride, 1.0% Triton X-100, 0.5% sodium deoxycholate 0.1% sodium dodecyl sulphate, 50 mM Tris, pH 8.0). Lysates were centrifuged for 20 min at 15,000 g at 4° C. and supernatants were collected and stored at −80° C. for further analysis. […] The release of CO from compounds of the invention was assessed spectrophotometrically by measuring the conversion of deoxyhemoglobin to carbonmonoxy hemoglobin (HbCO). […] The percent of HbCO was then calculated based on the absorbances at 420 and 432 nm with the reported extinction coefficients for mouse blood. […]

Data set [4] has as its system H9c2 cardiomyocytes. Description: cytotoxicity (LDH assay) in H9c2 cardiomyocytes. The format is cell-based, rat. As to conditions: 24 h, 20% or 5% oxygen, concentrations used. As for the experimental part:
(§2) Cytotoxicity was evaluated in THP-1 cells and H9c2 cardiomyocytes 24 h after incubation with increasing concentrations of compound C.
H9c2 cardiomyocytes were cultured as previously (Example 4.2).
(§3) Cell viability was assessed using the previously described LDH assay.

Data set [5] has as its system HO-1. Briefly: HO-1 protein expression in H9c2 cardiomyocytes. As to conditions: 1 μM to 10 μM, 6 h or 24 h, 20% or 5% O2. It counts as cell-based, rat. As for the experimental part:
The assessment of HO-1 induction by western blotting was performed as previously (Example 4.1). H9C2 cells rat cardiomyocytes were cultured in Dubelcco's Modified Eagle Medium containing: glucose 4.5 g/l, L-glutamine 2 mM, pyruvate) supplemented with fetal bovine serum (FBS) 10%, a mixture of penicillin (10,000 IU/ml)/streptomycin (10 mg/ml) (Gibco Life Technologies) and sodium Pyruvate 1% (Gibco Life Technologies). Cells were grown and subcutlured either in a normal incubator at 20% O2 or in a dedicated chamber in which the O2 levels was kept constantly at 5%, a value which reflects more closely the O2 concentrations found in vivo. For the adaptation of cells at 5 O2, cells were grown and passaged at least twice before conducting any experiment.
H9c2 cardiomyocytes were then incubated with increasing concentration of compound C (1 μM to 10 μM) for 6 h or 24 h either at 20% or 5% O2.

Data set [6] relates to HO-1. Briefly: HO-1 protein expression in BV2 microglia (Western blot). It counts as cell-based, mouse. As to conditions: cells and concentration not given. On the procedure: (§4) Cells were grown in an atmosphere of 5% CO2 at 37° C. in either 75 cm^2 flasks, 100 mm diameter Petri dishes, 6- or 24-well plates containing medium supplemented with 10% fetal bovine serum (Lonza) and penicillin (100 U·mL^−1)/streptomycin ([…]; Life Technologies). BV2 mouse microglial cells were grown in RPMI-1640 containing 2 g·L^−1 glucose and supplemented with 0.3 g·L^−1 1-glutamine.
To determine HO-1 protein expression, BV2 microglia were incubated with 10 μM hybrids (compounds) for 6 h. […] Protein concentrations were measured using a Pierce BCA Protein Assay kit (Thermo Scientific).
(§5) Whole cell lysates (20 μg protein/sample) were resolved on 12% acrylamide gels, respectively, and proteins transferred to polyvinylidene difluroride membranes (Millipore, Brussels, Belgium). […] Bands were detected with chemiluminescent substrates (Pierce ECL®, Thermo Scientific or RevelBIOt® Intense, Ozyme) and images captured using a G:Box F3 Imagery Station and GeneSys Software (Syngene, Cambridge, UK). […]

Data set [7] relates to NQO1. Briefly: cardiac NQO1 mRNA expression in mice after oral gavage. It counts as in vivo. As to conditions: 40 mg/kg oral gavage, 24 h. On the procedure: (§6) FIG. 11 represents blood HbCO levels in vivo after compound C were administered to mice by oral gavage (FIG. 11A); mRNA expression of Nrf2 dependent genes (HO-1 and NQO-1) in the heart of mice after HbCO after administration of compound C (40 mg/kg) by oral gavage (FIG. 11B).

Data set [8] has as its system human THP-1 cells. Briefly: cytotoxicity (LDH assay) in THP-1 cells. The format is cell-based. As to conditions: 24 h, increasing concentrations, up to 10 μM. As for the experimental part:
as §2
Human monocytes (THP-1 cells) were cultured in RPMI 1640-Glutamax medium supplemented with 1% penicillin/streptomycin, 1% sodium pyruvate and 10% fetal bovine serum (RPMIc). Cells at confluence were washed with PBS and treated with compound C at different concentrations and for different periods of time according to the experimental protocol. Compound C was dissolved in DMSO at 0.1% as a final concentration in complete medium.
as §3

The test system of data set [9] is Nrf2. Briefly: Nrf2 expression in human THP-1 cells. It counts as cell-based. As for the experimental part:
as §1

A short description of data set [10]: CO release in COP-1 fluorescence assay in buffer. It counts as physicochemical. Particulars: in vitro conditions described in the examples, not specified further. On the procedure: The release of CO from hybrids was assessed using COP-1, a fluorescent probe sensitive to CO. The fluorescence intensity of COP-1 (2 μM, Δex=475 nm) in buffer was measured in a cuvette to obtain a background fluorescence spectrum and spectra were then recorded immediately after addition of 50 μM tested compounds. The mean fluorescence intensity (MFI) of 3 independent reading was calculated using the fluorescence intensity values recorded at 507 nm after 60 min.

Data set [11] deals with HO-1. Briefly: cardiac HO-1 mRNA expression in mice after oral gavage. The format is in vivo. Particulars: 40 mg/kg oral gavage, 6 h. On the procedure: as §6
Data set [12] relates to human THP-1 cells. Briefly: CO delivery to human THP-1 cells loaded with COP-1. It counts as cell-based. As to conditions: 10 μM, 15 min at 37° C. On the procedure: To detect whether the compounds delivered CO to cells, human THP-1 cells were initially suspended in Dulbecco Phosphate Buffer Solution (+Ca, +Mg; Gibco® Cell Culture, Life Technologies) and then treated with compounds at a concentration of 10 μM for 15 min at 37° C. in 5 ml polypropylene round-bottom tubes (BD Falcon, Dominique Dutscher). Cells were then incubated for 30 min with 1 μM COP-1. Intracellular fluorescence of COP-1 was measured using a CyAnTM ADP LX7 Analyzer (Beckman Coulter) as previously reported.

Data set [13] has as its system Nrf2. Description: nuclear expression of Nrf2 in BV2 microglia (Western blot). The format is cell-based, mouse. Particulars: cells and concentration not given. As for the experimental part:
as §4
BV2 microglia were incubated with 10 μM of hybrids for 2 h to assess nuclear translocation of Nrf2. Nuclear fractions were isolated using a Nuclear Extract Kit from Active Motif (La Hulpe, Belgium), according to the manufacturer's instructions, and stored at −80° C. Protein concentrations were measured using a Pierce BCA Protein Assay kit (Thermo Scientific).
as §5
Background: Immunoblotting shows a protein as a band on a membrane.

The subject of data set [14] is BV2 microglia cells. Briefly: reduced glutathione (GSH), DTNB colorimetric assay in BV2 microglia. The format is cell-based, mouse. Particulars: 10 μM. As for the experimental part:
The 5,5′ dithiobis-(2-nitrobenzoic acid) (DTNB) colorimetric assay was used for the measurement of reduced glutathione (GSH). Briefly, BV2 microglia cells were seeded in 6-well-plates and incubated with 10 μM hybrids and dimethyl fumarate (DMF, positive control) for 3, 6 and 24 h. At the end of the incubation period, cells were initially washed with phosphate buffers solution, then scraped in 600 μL of 2% (w/v) 5-sulposalicylic acid solution and transferred to a 1.5 ml microtube, and finally centrifuged for 5 min at 10,000×g. An aliquot of the supernatant (500 μl) was then reacted with 0.5 ml DTNB solution (0.3 M sodium phosphate buffer, 10 mM EDTA and 0.2 mM DTNB) and after 5 min the absorbance was read spectrophotometrically at 412 nm (extinction coefficient 14.3 mM^−1 cm^−1).

[15] abbreviates: THP-1 cells, 6 h, different concentrations.
[16] abbreviates: identical concentrations (5 μM).

Take `CN(CC(=O)O)C(=S)[S-].[C-]#[O+].[C-]#[O+].[C-]#[O+].[C-]#[O+].[Mn]` [CORM-401, reference compound]: in data set [1] (THP-1 cells, 6 h), the “concentration from which an increase in HO-1 protein expression starts” value (shortened to “concentration from which an increase”) is recorded as 10 fold this concentration is not sufficient. Further, the IL-1β production entry in data set [2] is recorded as “no effect”.

In the case of `COc1ccc(/C=C/C(=O)OCCN(C)C2=[S][Mn][S]2)cc1OC.[C-]#[O+].[C-]#[O+].[C-]#[O+].[C-]#[O+]` [Compound C], the HbCO levels entry in data set [3] is “promotes an increase in HbCO levels”. Moreover, in data set [4], the “toxic effect toward H9c2 cardiomyocytes” value is “does not cause any visible toxic effect”. Also, the HO-1 protein expression result was “induced an increase in HO-1 protein expression; also recorded: significant expression of HO-1” in data set [5] and “induction of HO-1 protein expression; also recorded: concentration-dependent increase in HO-1 protein expression” in data set [1] (setting [15]). The “HO-1 protein expression (summary statement)” value in data set [6] is listed as “two fold increase”. Further, the “cardiac NQO1 mRNA expression” value in data set [7] is “promotes an increase”. The “concentration from which an increase” value in [1] (THP-1 cells, 6 h) was 1 µM. In addition, in [1] (setting [16]), the “HO-1 activation compared with CORM-401 and DMF” value was “more potent than DMF and comparative compound CORM-401”. Besides, in data set [8], the “toxicity toward human THP-1 cells” value was “do not show significant toxicity”. Further, the “activation of Nrf2” value in data set [9] (setting [15]) was “strongly promoted the activation of Nrf2”. The “Nrf2 activation compared with CORM-401 and DMF” value in [9] (setting [16]) is “more potent than DMF and comparative compound CORM-401”. In data set [2], the IL-1β production result is “decreased IL-1β production”. Also, in data set [10], the “CO release (summary statement)” value is on record as “significant amount of CO”. In data set [11], the “cardiac HO-1 mRNA expression” value is “promotes an increase”. For the same molecule, the “CO release in cells (intracellular COP-1 fluorescence)” value in data set [12] was “significant and high amount of CO”. Besides, the “nuclear expression of Nrf2 (summary statement)” value in [13] is “two fold increase”.

In the case of `COC(=O)/C=C/C(=O)OC` [DMF, dimethyl fumarate], the “concentration from which an increase” value in data set [1] (THP-1 cells, 6 h) was 10 fold this concentration is not sufficient. The IL-1β production result in data set [2] is “no effect”. The results for the “intracellular reduced glutathione (GSH)” value in data set [14] (3 or 6 h) and in [14] (24 h) were “raised the level of GSH from 6 h of treatment” and “significant raise”, respectively.
